Each structure is given as a SMILES string. A value given as a limit tells only on which side of the number the result lay.

The test system of one data set is RPMI 8226 cells. Nature of the data set: IC50 assay, inhibition of cell proliferation and growth, RPMI 8226. It is filed as cell-based. The following applies: Homo sapiens, RPMI-8226, read-out: IC50 Concentrations, RPM 18226. As for the experimental part:
(§1) Cell culture: The human cell lines were propagated under sterile conditions in RPMI 1640 (CellGrow) with 10% fetal bovine serum (Hyclone), 2 mM L-glutamine, and sodium bicarbonate (complete medium) and incubated at 37° C. in HEPA-filtered Sterilcult CO2 tissue culture incubators (Forma) with 5% CO^2 and 95% humidity (Table 1). The murine leukemia cell lines were propagated in Dulbecco's MEM media with 10% equine serum (Hyclone), 2 mM L-glutamine, and sodium bicarbonate (complete medium) and incubated as described. The cells were subcultured twice weekly and used in experiments. The culture was screened for mycoplasma contamination using GeneProbe™ (Fisher) and positive cultures were cured of contaminants over three passages using constant treatment with BM-Cyclin™ antibiotic combination (Boehringer Mannheim). Only cultures confirmed as mycoplasma free were used in testing compounds for anticellular activity.
(§2) The test compounds were stored at 4° C. under light protected conditions. The test compounds were weighed and dissolved in DMSO. The dissolved compounds were then serially diluted in warm medium (RPMI 1640 or Dulbecco's MEM) under constant mixing to minimize precipitation. The positive control drug doxorubicin was diluted in water followed by dilution in media to achieve a final concentration of 200 nM.
(§3) For all experiments, the cells were harvested and centrifuged to remove the media, and suspended in fresh completed medium. Samples were taken to determine cell density. The cell count was determined with a Coulter Model Z1 cell counter and viability was measured with propidium iodide staining followed by analysis on a Coulter EPPICS Elite Flow cytometer. The cell samples sere adjusted with complete medium to a density of 5×10^4/mL for adherent cell lines and 1×10^5/mL for suspension lines. Tissue culture cluster plates (96 well, cat. No. 3595 Costar for adherent human lines and cat No. 25850 Corning for murine leukemias) were seeded with 100 μL cells and incubated as described. Replicate groups of plates were set up for each line to accommodate the exposure options for single agents and combinations. For each dilution 8 wells (100 μL samples of cells) were treated with 100 μL of dosing solution one day after plating. Each cluster plate contained a cell control (8 wells, mock-treated with complete medium), a medium control (3 wells with medium used to subtract out signal generated by media conditions), and an air blank (1 well, for calibrating the plate reader).
(§4) Using the procedures described above, concentrations of the Example compounds necessary to inhibit cell proliferation and growth by 50% (1C50 values) were determined in the test cell lines.
For `O=C(NCCCCCCNC(=O)c1cc([N+](=O)[O-])ccc1I)c1cc([N+](=O)[O-])ccc1I` [Ref. No. 24, 1,6-Di-(2′-Iodo-5′-Nitro-Benzamido)-Hexane], the IC50 is over 500 µM.

The same data set, now with this note: Homo sapiens; RPMI 8226 myeloma cell line; read-out: IC50 Concentrations, RPM 18226.
Consider `CCOC(=O)c1sc(NC(=O)c2cc([N+](=O)[O-])ccc2I)nc1C` [Ref. No. 16], for which the IC50 was determined as 10.6 µM.

Test system in the next data set: not given
Assay: not given
Conditions: not given
The term melting point denotes the temperature of the solid-liquid transition. With `CCOC(=O)c1sc(NC(=O)c2cc([N+](=O)[O-])ccc2I)nc1C` [Ref. No. 16], the melting point lay within 211 to 212 °C.

The next data set has as its system P388 cells. Nature of the data set: IC50 assay (XTT), inhibition of cell proliferation and growth, P388. The following applies: Mus musculus; P388 murine leukemia cell line; XTT dye conversion; read-out: IC50 Concentrations, P388. The data set is classed as cell-based. On the procedure:
as §1, §2, §3
(§5) Anticellular effects of the murine leukemia cell lines were assessed with the XTT dye conversion assay which is more suited to suspension cultures. On the day of analysis XTT[2,3-bis(2-methoxy-4-nitro-5-sulfophenyl)-5-[(phenylamino)carbenyl]-2H-tetrazolium hydroxide, inner salt, sodium salt (Sigma)] was weighed out and dissolved at 1 mg/mL in media. PMS (phenazine methosulfate) was prepared at 5 mM in PBS (phosphate buffered saline) and stored as a stock solution 4° C. The PMS was mixed with dissolved XTT to a final concentration of 0.025 mM. Sample wells were treated with 50 μL of the XTT solution and the plates were incubated for four hours at 37° C. to allow for conversion into the liquid soluble formazan product. After the incubation period the reaction was stopped by adding 10 μL of 10% SDS solution per well and the wells contents of each plate were mixed by agitation. The absorbancy of formazan in each monolayer was measured at 450 nm (620 nm reference beam) on a Denley Anthos 2001 microplate reader. The data were transferred via the ARCOM software capture program into Lotus 1-2-3 for processing.
as §4
(In general: Formazan colour is commonly taken as a measure of viable cells.)
With `CCOC(=O)c1sc(NC(=O)c2cc([N+](=O)[O-])ccc2I)nc1C` [Ref. No. 16], the IC50 turned out to be 11.2 µM.

The next data set deals with SK-OV-3 cells. As to the kind of experiment: IC50 assay, inhibition of cell proliferation and growth, SK-OV-3. It is filed as cell-based, human. The following applies: Homo sapiens, SK-OV-3, read-out: IC50 Concentrations, SK-OV-3. On the procedure: as §1, §2, §3
(§6) Anticellular effects of the compounds for the adherent cell lines were assessed with neutral red dye. On the day of analysis, the media was removed from sample cell monolayers and replaced with 0.1 mL of neutral red solution (0.5% neutral red, HBSS:RPMI 1640 (1:1), 0.05 M HEPES, pH 7.2). After incubation of the samples at 37° C. for 1 hour the excess dye was removed with blotting and the monolayers were washed twice with 0.85% NaCl solution (0.1 mL per wash). The cell associated dye was extracted by adding 0.2 mL of a 0.1 M NaH2PO4:ethanol (1:1) solution/well followed by incubation for 1 hour at 35° C. The absorbency of neutral red in each monolayer was measured at 550 nm (620 nm reference beam) on a Denley Anthos 2001 microplate reader. The data were transferred via the ARCOM software capture program in Lotus 1-2-3 for processing.
(§7) In assays where technical difficulties due to crystalization of the neutral red occurred the crystal violet staining procedure was employed to measure the amount of cells were left on the plate. Crystal violet staining solution [0.5% crystal violet (w/v), 50% methanol (v/v), 45% saline (v/v), and 5% formalin (v/v)] were prepared on the day of staining. After the media was removed from the sample wells, two drops of crystal violet stain were added to each well and the samples were incubated at ambient temperature for 10 minutes. […]
In the case of `O=C(NCCCCCCNC(=O)c1cc([N+](=O)[O-])ccc1I)c1cc([N+](=O)[O-])ccc1I` [Ref. No. 24, 1,6-Di-(2′-Iodo-5′-Nitro-Benzamido)-Hexane], the IC50 is over 500 µM.

The data set is the same for the next values; noted with them: Homo sapiens; SK-OV-3 ovarian adenocarcinoma cell line; neutral red or crystal violet; read-out: IC50 Concentrations, SK-OV-3.
As for `CCOC(=O)c1sc(NC(=O)c2cc([N+](=O)[O-])ccc2I)nc1C` [Ref. No. 16], the IC50 was 41.2 µM.

The next data set relates to COLO 205 cells. Nature of the data set: IC50 assay, inhibition of cell proliferation and growth, COLO 205. It is filed as cell-based, human. The following applies: Homo sapiens, COLO 205, read-out: IC50 Concentrations, COLO 205. As for the experimental part: as §1, §2, §3, §6, §7
With `O=C(NCCCCCCNC(=O)c1cc([N+](=O)[O-])ccc1I)c1cc([N+](=O)[O-])ccc1I` [Ref. No. 24, 1,6-Di-(2′-Iodo-5′-Nitro-Benzamido)-Hexane], the IC50 is over 500 µM.

The same data set, now with this note: Homo sapiens; COLO 205 colon adenocarcinoma cell line; neutral red or crystal violet; read-out: IC50 Concentrations, COLO 205.
With `CCOC(=O)c1sc(NC(=O)c2cc([N+](=O)[O-])ccc2I)nc1C` [Ref. No. 16], the IC50 turned out to be 31.2 µM.

In the next data set the test system is M14 cells. Nature of the data set: IC50 assay, inhibition of cell proliferation and growth, M14. The data set is classed as cell-based, human. The following applies: Homo sapiens, M14, read-out: IC50 Concentrations, M14. On the procedure:
as §1, §2, §3, §6, §7
Take `O=C(NCCCCCCNC(=O)c1cc([N+](=O)[O-])ccc1I)c1cc([N+](=O)[O-])ccc1I` [Ref. No. 24, 1,6-Di-(2′-Iodo-5′-Nitro-Benzamido)-Hexane]: the IC50 was over 500 µM.

The same data set, now with this note: Homo sapiens; M14 melanoma cell line; neutral red or crystal violet; read-out: IC50 Concentrations, M14.
As for `CCOC(=O)c1sc(NC(=O)c2cc([N+](=O)[O-])ccc2I)nc1C` [Ref. No. 16], the IC50 came to 37.3 µM.

In the next data set the test system is A549 cells. As to the kind of experiment: IC50 assay, inhibition of cell proliferation and growth, A549. The data set is classed as cell-based, human. The following applies: Homo sapiens, A549, read-out: IC50 Concentrations, A 549. As for the experimental part:
as §1, §2, §3, §6, §7
As to `O=C(NCCCCCCNC(=O)c1cc([N+](=O)[O-])ccc1I)c1cc([N+](=O)[O-])ccc1I` [Ref. No. 24, 1,6-Di-(2′-Iodo-5′-Nitro-Benzamido)-Hexane], the IC50 is over 500 µM.

Staying with this data set, now noted: Homo sapiens; A549 bronchogenic cell line; neutral red or crystal violet; read-out: IC50 Concentrations, A 549.
As to `CCOC(=O)c1sc(NC(=O)c2cc([N+](=O)[O-])ccc2I)nc1C` [Ref. No. 16], the IC50 was 30.1 µM.

In another data set the test system is SK-MEL-5 cells. As to the kind of experiment: IC50 assay, inhibition of cell proliferation and growth, SK-MEL-5. It is filed as cell-based, human. The following applies: Homo sapiens, SK-MEL-5, read-out: IC50 Concentrations, SK MEL-5. As for the experimental part: as §1, §2, §3, §6, §7
In the case of `O=C(NCCCCCCNC(=O)c1cc([N+](=O)[O-])ccc1I)c1cc([N+](=O)[O-])ccc1I` [Ref. No. 24, 1,6-Di-(2′-Iodo-5′-Nitro-Benzamido)-Hexane], the IC50 is over 500 µM.

Still in this data set, the particulars now being: Homo sapiens; SK-MEL-5 melanoma cell line; neutral red or crystal violet; read-out: IC50 Concentrations, SK MEL-5.
In the case of `CCOC(=O)c1sc(NC(=O)c2cc([N+](=O)[O-])ccc2I)nc1C` [Ref. No. 16], the IC50 amounted to 41.7 µM.

Another data set concerns B16 cells. As to the kind of experiment: IC50 assay, inhibition of cell proliferation and growth, B16. The data set is classed as cell-based. The following applies: Mus musculus; B16 murine melanoma cell line; neutral red or crystal violet; read-out: IC50 Concentrations, B16. On the procedure: as §1, §2, §3, §6, §7
Take `CCOC(=O)c1sc(NC(=O)c2cc([N+](=O)[O-])ccc2I)nc1C` [Ref. No. 16]: the IC50 worked out at 7.93 µM.

A further data set deals with MCF7 cells. Nature of the data set: IC50 assay, inhibition of cell proliferation and growth, MCF7. The data set is classed as cell-based, human. The following applies: Homo sapiens, MCF7, read-out: IC50 Concentrations, MCF 7. As for the experimental part:
as §1, §2, §3, §6, §7
Consider `O=C(NCCCCCCNC(=O)c1cc([N+](=O)[O-])ccc1I)c1cc([N+](=O)[O-])ccc1I` [Ref. No. 24, 1,6-Di-(2′-Iodo-5′-Nitro-Benzamido)-Hexane], for which the IC50 is over 500 µM.

Staying with this data set, now noted: Homo sapiens; MCF7 breast adenocarcinoma cell line; neutral red or crystal violet; read-out: IC50 Concentrations, MCF 7.
On to `CCOC(=O)c1sc(NC(=O)c2cc([N+](=O)[O-])ccc2I)nc1C` [Ref. No. 16], for which the IC50 was 34.3 µM.

The test system of another data set is L1210 cells. As to the kind of experiment: IC50 assay (XTT), inhibition of cell proliferation and growth, L1210. The following applies: Mus musculus; L1210 murine leukemia cell line; XTT dye conversion; read-out: IC50 Concentrations, L1210. The data set is classed as cell-based. As for the experimental part:
as §1, §2, §3, §5, §4
In the case of `CCOC(=O)c1sc(NC(=O)c2cc([N+](=O)[O-])ccc2I)nc1C` [Ref. No. 16], the IC50 came out at 41.1 µM.

For the origin of these results see patent US6780995B2, “Activated iododerivatives for the treatment of cancer and aids” (Isotechnika Inc., priority 1997, dated 2004).
